Read-outs that look alike come from different tables or passages of the source.
Key:
[1] = rat, in vivo
[2] = design: species or system SD rats; details: rat, in vivo
Description: Laboratory Animals: Adult Male SD Rats.
The plasma was collected and subjected to quick freezing.

bioavailability [1] | bioavailability [2] | Structure (SMILES)
1.66% | – | CC[C@H](C)[C@H](NC(=O)[C@H](CO)NC(=O)[C@H](CCCCN)NC(=O)CNC(=O)[C@H](CCCCN)NC(=O)[C@H](CC(=O)O)NC(=O)[C@H](Cc1cnc[nH]1)NC(=O)[C@H](CC(C)C)NC(=O)[C@H](CC(C)C)NC(=O)[C@H](CCC(N)=O)NC(=O)[C@H](Cc1cnc[nH]1)NC(=O)[C@H](CCC(=O)O)NC(=O)[C@H](CO)NC(=O)[C@@H](NC(=O)[C@H](C)N)C(C)C)C(=O)N[C@@H](CCC(N)=O)C(=O)N[C@@H](CC(=O)O)C(=O)N[C@@H](CC(C)C)C(=O)N[C@@H](CCCNC(=N)N)C(=O)N[C@@H](CCCNC(=N)N)C(=O)N[C@@H](CCCNC(=N)N)C(=O)N[C@@H](CCC(=O)O)C(=O)N[C@@H](CC(C)C)C(=O)N[C@@H](CC(C)C)C(=O)N[C@@H](CCC(=O)O)C(=O)N[C@@H](CCCCN)C(=O)N[C@@H](CC(C)C)C(=O)N[C@@H](CC(C)C)C(=O)NC(C)(C)C(=O)N[C@@H](CCCCN)C(=O)N[C@@H](CC(C)C)C(=O)N[C@@H](Cc1cnc[nH]1)C(=O)N[C@H](C(=O)N[C@@H](C)C(N)=O)[C@@H](C)O [Abaloparatide]
– | 1.22% | CC[C@H](C)[C@@H]1NC(=O)[C@H](CCCNC(=N)N)NC(=O)[C@H](CC(=O)O)NC(=O)[C@H](CCSC)NC(=O)[C@H](CCCCN)NC(=O)[C@H](CCCNC(=N)N)NC(=O)CNC(=O)[C@H](Cc2ccccc2)NC(=O)[C@@H](NC(=O)CNC(=O)[C@H](CO)NC(=O)CNC(=O)[C@H](CCC(N)=O)NC(=O)[C@@H](NC(=O)[C@H](CCSC)NC(=O)[C@H](CCCCN)NC(=O)[C@@H]2CCCN2C(=O)[C@@H](N)CO)C(C)C)CSSC[C@@H](C(=O)N[C@@H](CCCCN)C(=O)N[C@H](C(=O)N[C@@H](CC(C)C)C(=O)N[C@@H](CCCN=C(N)N)C(=O)N[C@@H](CCCN=C(N)N)C(=O)N[C@@H](Cc2cnc[nH]2)C(=O)O)C(C)C)NC(=O)CNC(=O)[C@H](CC(C)C)NC(=O)CNC(=O)[C@H](CO)NC(=O)[C@H](CO)NC(=O)[C@H](CO)NC(=O)[C@H](CO)NC1=O [Nesiritide]

Source: patent publication US12036197B2, “Composition for improving bioavailability of drugs” (priority 2019, dated 2024)
